Test [1] deals with cultured hippocampal neurons. In words: FM1-43 dye labeling of presynaptic vesicle recycling. It counts as cell-based, mouse. Particulars: 1 μM sAPPα in the presence of CGP. The method, then:
We assessed the effect of sAPPα on synaptic vesicle recycling (ref6) using the activity-dependent dye FM1-43. We measured density (D) and intensity (ΔF) of FM1-43 uptake in presynaptic vesicles turned over by stimulation of 30 action potentials (APs) at a rate of 1 Hz in cultured hippocampal neurons.
The experiments were performed in mature (15-28 days in vitro) cultures. Hippocampal neurons were imaged using a FV1000 spectral Olympus confocal microscope using a 60×1.2 NA water immersion objective. The experiments were conducted at room temperature in extracellular Tyrode solution containing (in mM): NaCl, 145; KCl, 3; glucose, 15; HEPES, 10; MgCl2, 1.2; CaCl2), 1.2; pH adjusted to 7.4 with NaOH. For FM-based imaging and analysis, activity-dependent FM1-43 (10 μM) styryl dye was used to estimate basal synaptic vesicle recycling using previously described protocol48. Briefly, action potentials were elicited by passing 50 mA constant current for 1 ms through two platinum wires, separated by ˜7 mm and close to the surface of the coverslip. The extracellular medium contained non-selective blocker of glutamate receptors (0.5 mM kynurenic acid) to block recurrent neuronal activity. 30 stimuli at 1 Hz were applied during FM1-43 loading, while 800 stimuli at 2 Hz during unloading. The fluorescence of individual synapses was determined from the difference between images obtained after staining and after destining (ΔF). Detection of signals was done using custom-written scripts in MATLAB (Mathworks) as described before48.

The test system of test [2] is Schaffer collateral (SC) synapses in mouse hippocampus. Put plainly: fEPSP field recordings at Schaffer collateral synapses in hippocampal slices. It counts as cell-based. The method, then: We assessed the effect of sAPPα on the synaptic properties of Schaffer collateral (SC) synapses in mouse hippocampus. […] As change in probability of neurotransmitter release inversely correlates with a change in short-term facilitation, we applied a burst of 5 stimuli at 3 different frequencies (20, 50, and 100 Hz) to induce short-term facilitation at the SC. […] Preincubation with the GABABR antagonist CGP54626 (CGP, 10 μM) for 20 min before the incubation with sAPPα blocked its effects on the peak amplitude of the fESPS and the input/output slopes (FIG. 10f-g). Accordingly, CGP occluded sAPPα-induced augmentation of short-term facilitation at 20, 50, and 100 Hz burst frequencies (FIG. 10h-j).
On the day of recording the brain of a 2-month-old Balb/c male mouse was quickly removed and 400 μm-thick horizontal slices were prepared in an ice-cold oxygenated buffer containing (in mM): sucrose, 182; KCl, 2.5; MgSO4, 2; NaH2PO4, 1.25; NaHCO3, 25; CaCl2), 0.8; MgCl2, 5; glucose, 25; ascorbate, 1; HEPES, 20. The slicing procedure was performed using a Leica VT1200 vibrating microtome. Slices were then transferred to a submerged recovery chamber at room temperature containing oxygenated (95% 02 and 5% C02) storage artificial cerebrospinal fluid (ACSF) for 30 min before the incubations (see below). The storage ACSF contained, in mM: NaCl, 100; KCl, 2.5; MgSO4, 2; NaH2PO4, 1.25; NaHCO3, 25; CaCl2), 1.2; MgCl2, 3; glucose, 20; ascorbate, 1; sodium pyruvate,3 and HEPES, 20. The slices were incubated in the incubation chambers perfused with oxygenated storage ACSF containing the experimental agents for 90 min before performing field recordings: In the incubation chamber, control slices were perfused with normal storage ACSF while sAPPα slices were perfused with storage ACSF containing 1 μM sAPPα. CGP slices were perfused with storage ACSF containing 10 μM CGP54626 (Tocris). CGP+sAPPα slices were preincubated in the chamber perfused with ACSF+CGP before being transferred into the chamber perfused with storage ACSF implemented with 10 μM CGP54626+1 μM sAPPα. All recordings were performed at 32-33° C. in a recording chamber perfused with ACSF (4 ml/min) on the stage of an Olympus BX51WI microscope equipped with IR optics and oblique illumination. Recording ACSF contains, in mM: NaCl, 129; KCl, 2.5; CaCl2), 1.2; MgCl2, 1.2; NaHCO3, 25; NaH2PO4, 1.25; glucose, 15. Stimulation of the Schaffer-collateral was delivered through a glass suction electrode (10-20 μm tip) filled with ACSF. fEPSPs were recorded using a glass pipette containing ACSF (1-2 MΩ) from proximal synapses in the CA1 stratum radiatum. Field recording experiments were analyzed using Clampfit.

Test [3] has as its system primary hippocampal neurons. In words: mEPSCs & mIPSCs in cultured primary hippocampal neurons (wild type). It counts as cell-based, mouse. Particulars: for effect on mEPSC frequency (in words) / effect on mIPSC frequency (in words): 250 nM each. As to the method: mEPSCs & mIPSCs are measured in cultured primary hippocampal neurons at baseline and following acute application of agonists. Excitatory terminals selectively express the sushi domain-containing GABABR1a isoform (ref18), where it functions to inhibit neurotransmitter release (ref 24). Acute exposure of primary hippocampal neurons from wild type mice to 30μM baclofen, a GABABR agonist, or 250 nM sAPPα (Fc cleaved) reduces the frequency of miniature excitatory postsynaptic currents (mEPSCs) by 68% (FIG. 8 a,b) and 39% (FIG. 8 c,d), respectively, with no effect on mEPSC amplitude (FIG. 8e). […] Acute application of 30 μM baclofen or 250 nM purified sAPPα reduces the frequency of miniature inhibitory postsynaptic currents (mIPSCs) by 63% (FIG. 8a, 9a) and 44% (FIG. 8c, 9b), respectively, which is blocked by pretreatment with the GABABR antagonist CGP55845 (CGP, 5 μM) (FIG. 8f, 9d). Application of sAPPα causes a minor (14%) reduction on mIPSC amplitude (FIG. 8e, 9c). […] Baclofen is known to reduce the frequencies of mEPSCs and mIPSCs, which we have also confirmed. […] To confirm that the agonist is acting through GABABR1a, the agonist is tested in cultures with shRNA mediated knockdown of GABABR1a or antisense oligonucleotides mediated exon skipping of the exon encoding the Sushi domain 1 of GABABR1a. Antagonists are tested by treatment in combination with the agonist, Baclofen. […] As an antagonist we test an antibody against the sushi domain sequence (SEQ ID No: 5): […] SWTDMDTPSRCV. An antibody specifically binding to this domain which acts as an antagonist increases the frequencies of mEPSCs and mIPSCs. sAPPα also reduces mEPSC and mIPSC frequency in App/Aplp1 dKO cultures (FIG. 8j, 9f), excluding the possibility that sAPPα interferes with a complex of full-length APP and GABABR1 to exert its effect on GABABR signaling.
Hippocampal neurons were cultured from E18 C57/B16 wild type mice or APP/APLP1 dKO mice (provided by Ulrike Muller46) and plated on poly-D-lysine (Millipore), and laminin (Invitrogen) coated coverslips (Nalge Nunc International). Neurons were maintained in Neurobasal medium (Invitrogen) supplemented with B27, glucose, glutamax, penicillin/streptomycin (Invitrogen) and 25 μM β-mercaptoethanol.
Single neurons from wild type or APP/APLP1 null mutant embryos (E18) were recorded within the large neuronal network at DIV 12-15. The intracellular whole-cell pipette medium contained (in mM): 136 KCl, 18 HEPES, 4 Na-ATP, 4.6 MgCl2, 15 Creatine Phosphate, 1 EGTA and 50 U/ml Phospocreatine Kinase (300 mOsm, pH 7.30). Regular external solution contained 2 mM/2 mM Ca2+/Mg2+(in mM: 140 NaCl, 2.4 KCl, 2 CaCl2), 2 MgCl2, 10 HEPES, 14 Glucose (300 mOsm, pH 7.30)) and TTX (1 μM). Pharmacological reagents (30 μM baclofen, 5 μM CGP), sAPLP1, full length sAPP and sAPP derived peptides (250 nM each) were bath applied (dissolved in external medium described above) using a separate gravity driven application inlet. Recordings were done in whole cell voltage clamp configuration at −70 mV with a double EPC-10 amplifier (HEKA Elektronik) under control of Patchmaster v2×32 software (HEKA Elektronik). Currents were low-pass filtered at 3 kHz and stored at 20 kHz. Patch pipettes were pulled from borosilicate glass using a multi-step puller (P-1000; Sutter Instruments). Pipette resistance ranged from 3 to 5 MΩ and was compensated to 75-80%. Only cells with series resistances <15 MΩ were included in analysis. All recordings were done at room temperature. Spontaneous events were detected using Mini Analysis program (Synaptosoft). mEPSCs and mIPSCs were separated on the basis of their distinct decay kinetics, using a threshold of 5 ms47. Baseline was determined from an average of 60 sec of recordings prior to protein or drug treatment. Effect of treatment was determined from an average of 30 sec recordings after 140 sec of protein or drug treatment.

Where no end group is shown, it is not given here.

As for `C[C@H](NC[C@H](O)CP(=O)(O)CC1CCCCC1)c1ccc(Cl)c(Cl)c1` [CGP54626, reference compound], the “occlusion of the sAPPα effect on presynaptic strength” value in test [1] is “occluded”. Further, the “block of sAPPα effects on peak fEPSP amplitude and input/output slopes” value in test [2] (10 μM preincubation for 20 min before sAPPα) is given as “blocked”. In test [2] (10 μM, 20, 50 and 100 Hz burst frequencies), the “occlusion of sAPPα-induced augmentation of short-term facilitation” value is recorded as “occluded”.

Consider `C[C@H](NC[C@H](O)CP(=O)(O)Cc1ccccc1)c1ccc(Cl)c(Cl)c1` [CGP55845, reference compound], for which the “block of the reduction of mIPSC frequency” value in test [3] (pretreatment with antagonist 5 μM) is given as “blocked”. In test [3] (pretreatment with antagonist 5 μM, then 250 nM sAPPα), the “block of the sAPPα effect on mEPSC frequency” value is listed as “blocks the effect of sAPPα on mEPSC frequency”.

As to `NCC(CC(=O)O)c1ccc(Cl)cc1` (stereo not shown) [baclofen, reference compound], in test [3] (30 µM), the “reduction of mEPSC frequency” value came to 68% and the “reduction of mIPSC frequency” value is reported as 63%.

“DDSDVWWGGADTDYADG [17mer peptide, DDSDVWWGGADTDYADG]”: in test [3] (acute application), the “effect on mEPSC frequency (in words)” value is “reduces mEPSC frequency to a similar degree as sAPPα” and the “effect on mIPSC frequency (in words)” value was “reduce mIPSC frequency to a similar extent as sAPPα”.

B1: ExD-AcD: extension domain-acidic domain fragment of APP695 (195-298aa), non-Fc protein used in ITC and functional assays (protein)
chain: SVDSADAEEDDSDVWWGGADTDYADGGEDKVVEVAEEEEVADVEEEEADDDEDVEDGDEVEEEAEEPYEEATERTTSTATTTTTTTESVEEVVRVPTTAASTPD
modifications: left off: a dimerising Fc or GST; small tags and cut ends
notes: extension domain-acidic domain fragment of APP695 (195-298aa), non-Fc protein used in ITC and functional assays
Consider B1, for which, in test [3] (acute application), the “effect on mEPSC frequency (in words)” value is reported as “reduces mEPSC frequency to a similar degree as sAPPα” and the “effect on mIPSC frequency (in words)” value was “reduce mIPSC frequency to a similar extent as sAPPα”.

B2: sAPLP1: soluble ectodomain of APP-like protein 1 (protein, UniProt Q03157 39-584, looked up)
extracellular domain: NLAVGSPSAAEAPGSAQVAGLCGRLTLHRDLRTGRWEPDPQRSRRCLLDPQRVLEYCRQMYPELHIARVEQAAQAIPMERWCGGTRSGRCAHPHHEVVPFHCLPGEFVSEALLVPEGCRFLHQERMDQCESSTRRHQEAQEACSSQGLILHGSGMLLPCGSDRFRGVEYVCCPPPATPNPSGMAAGDPSTRSWPLGGRAEGGEDEEEVESFPQPVDDYFVEPPQAEEEEEEEEERAPPPSSHTPVMVSRVTPTPRPTDGVDVYFGMPGEIGEHEGFLRAKMDLEERRMRQINEVMREWAMADSQSKNLPKADRQALNEHFQSILQTLEEQVSGERQRLVETHATRVIALINDQRRAALEGFLAALQGDPPQAERVLMALRRYLRAEQKEQRHTLRHYQHVAAVDPEKAQQMRFQVQTHLQVIEERMNQSLGLLDQNPHLAQELRPQIQELLLAEHLGPSELDASVPGSSSEDKGSLQPPESKDDPPVTLPKGSTDQESSSSGREKLTPLEQYEQKVNASAPRGFPFHSSDIQRDELAPSGTGVSRE
modifications: extracellular domain
Take B2: the “effect on mEPSC frequency (in words)” value in test [3] (acute application) is “not”. In addition, the “reduction of mIPSC frequency” value in test [3] (acute application, 30 μM baclofen, 250 nM proteins) is given as 17%.

The values above are taken from US10829528B2, “Therapeutic agents for neurological and psychiatric disorders” (VIB VZW, priority 2016, dated 2020).
